Results taken from ChEMBL document CHEMBL5038622, “p-Terphenyls as Anti-HSV-1/2 Agents from a Deep-Sea-Derived Penicillium sp” (J Nat Prod, 2021).
Calls of active or inactive are those of the source. The rule behind the calls is not given here.

Experiments:
Human alphaherpesvirus 1 [1] = test: Antiviral activity against HSV-1 infected in African green monkey Vero cells assessed as inhibition of viral replication incubated for 3 days by MTT assay; type: functional, organism-based; details: Human alphaherpesvirus 1, Vero, 72 h
[2] = Cytotoxicity against African green monkey Vero cells assessed as reduction in cell viability incubated for 3 days by MTT assay; type: toxicity, cell-based; details: chlorocebus sabaeus, time 3 day
HSV-1 = test: Selectivity index, ratio of CC50 for african green monkey Vero cells to EC50 for HSV-1 infected in African green monkey Vero cells; type: toxicity; details: HSV-1 infected Vero cells
Human alphaherpesvirus 2 [3] = test: Antiviral activity against HSV-2 infected in African green monkey Vero cells assessed as inhibition of viral replication incubated for 3 days by MTT assay; type: functional, organism-based; details: Human alphaherpesvirus 2, Vero, 72 h
HSV-2 = test: Selectivity index, ratio of CC50 for african green monkey Vero cells to EC50 for HSV-2 infected in African green monkey Vero cells; type: toxicity; details: HSV-2 infected Vero cells
Dengue virus = test: Antiviral activity against Dengue virus at 20 uM; type: functional, organism-based
Human alphaherpesvirus 1 [4] = test: Antiviral activity against HSV-1 infected in African green monkey Vero cells assessed as inhibition of syncytium formation at 0.63 to 10 uM coinfected for 1 hr and measured after 24 hrs by H&E staining based optical microscopic analysis; type: functional, organism-based; details: dose 0.63-10 µM, time 25.0 hrs
Human alphaherpesvirus 1 [5] = test: Antiviral activity against HSV-1 infected in African green monkey Vero cells assessed as reduction in plague formation at 10 uM measured after 48 hrs by crystal violet staining based plaque formation assay; type: functional, organism-based
Human alphaherpesvirus 1 [6] = test: Antiviral activity against HSV-1 infected in African green monkey Vero cells assessed as reduction in virus-induced cytopathic effect measured after 48 hrs by MTT assay; type: functional, organism-based; details: dose 0.63-10 µM
Human alphaherpesvirus 2 [7] = test: Antiviral activity against HSV-2 infected in African green monkey Vero cells assessed as reduction in virus-induced cytopathic effect measured after 48 hrs by MTT assay; type: functional, organism-based; details: dose 0.63-10 µM
Human alphaherpesvirus 1 [8] = test: Antiviral activity against HSV-1 infected in African green monkey Vero cells assessed as reduction in plague formation measured after 48 hrs by crystal violet staining based plaque formation assay; type: functional, organism-based; details: dose 0.63-10 µM
Human alphaherpesvirus 2 [9] = test: Antiviral activity against HSV-2 infected in African green monkey Vero cells assessed as reduction in plague formation measured after 48 hrs by crystal violet staining based plaque formation assay; type: functional, organism-based; details: dose 0.63-10 µM
Human alphaherpesvirus 1 [10] = test: Antiviral activity against HSV-1 infected in African green monkey Vero cells assessed as reduction in virus induced glycoprotein D gene expression measured after 48 hrs by qRT-PCR analysis; type: functional, organism-based; details: dose 0.63-10 µM
Human alphaherpesvirus 1 [11] = test: Antiviral activity against HSV-1 infected in African green monkey Vero cells assessed as reduction in virus induced VP16 gene expression measured after 48 hrs by qRT-PCR analysis; type: functional, organism-based; details: dose 0.63-10 µM
Human alphaherpesvirus 2 [12] = test: Antiviral activity against HSV-2 infected in African green monkey Vero cells assessed as reduction in virus induced glycoprotein D gene expression measured after 48 hrs by qRT-PCR analysis; type: functional, organism-based; details: dose 0.63-10 µM
Human alphaherpesvirus 2 [13] = test: Antiviral activity against HSV-2 infected in African green monkey Vero cells assessed as reduction in virus induced VP16 gene expression measured after 48 hrs by qRT-PCR analysis; type: functional, organism-based; details: dose 0.63-10 µM
Human alphaherpesvirus 1 [14] = test: Antiviral activity against HSV-1 infected in African green monkey Vero cells assessed as reduction in virus induced gD protein expression at 2.5 uM by western blot analysis; type: functional, organism-based
Human alphaherpesvirus 2 [15] = test: Antiviral activity against HSV-2 infected in African green monkey Vero cells assessed as reduction in virus induced gD protein expression at 1.3 uM by western blot analysis; type: functional, organism-based
Human alphaherpesvirus 2 [16] = test: Antiviral activity against HSV-2 infected in African green monkey Vero cells assessed as reduction in gD protein expression under co-treatment condition by western blot analysis; type: functional, organism-based
Human alphaherpesvirus 2 [17] = test: Antiviral activity against HSV-2 infected in African green monkey Vero cells assessed as inhibition of syncytium formation at 0.63 to 10 uM coinfected for 1 hr and measured after 24 hrs by H&E staining based optical microscopic analysis; type: functional, organism-based; details: dose 0.63-10 µM, time 25.0 hrs
Zika virus = test: Antiviral activity against Zika virus at 20 uM; type: functional, organism-based
[18] = molecular target: T1, Pancreatic triacylglycerol lipase (Homo sapiens) (UniProt P16233); test: Inhibition of pancreatic lipase (unknown origin) at 100 uM
T1 sequence (whole entry): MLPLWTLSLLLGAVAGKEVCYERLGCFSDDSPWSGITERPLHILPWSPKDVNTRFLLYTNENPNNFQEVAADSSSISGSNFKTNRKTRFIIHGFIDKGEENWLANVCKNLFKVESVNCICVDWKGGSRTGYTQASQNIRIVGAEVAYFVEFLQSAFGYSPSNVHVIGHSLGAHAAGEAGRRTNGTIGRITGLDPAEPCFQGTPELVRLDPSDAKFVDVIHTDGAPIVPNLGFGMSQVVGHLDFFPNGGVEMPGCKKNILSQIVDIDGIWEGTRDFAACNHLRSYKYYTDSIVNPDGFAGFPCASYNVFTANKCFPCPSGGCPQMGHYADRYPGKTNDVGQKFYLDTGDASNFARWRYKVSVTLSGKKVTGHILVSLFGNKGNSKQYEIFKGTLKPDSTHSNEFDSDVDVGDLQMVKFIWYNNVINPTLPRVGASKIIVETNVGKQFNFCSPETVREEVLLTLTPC

Acetylcholinesterase = Acetylcholinesterase (Homo sapiens, UniProt P22303); test: Inhibition of AChE (unknown origin)
Human alphaherpesvirus 2 [19] = test: Antiviral activity against HSV-2 infected in African green monkey Vero cells assessed as reduction in plague formation at 5 uM measured after 48 hrs by crystal violet staining based plaque formation assay; type: functional, organism-based

Chain of Acetylcholinesterase (P22303 whole entry): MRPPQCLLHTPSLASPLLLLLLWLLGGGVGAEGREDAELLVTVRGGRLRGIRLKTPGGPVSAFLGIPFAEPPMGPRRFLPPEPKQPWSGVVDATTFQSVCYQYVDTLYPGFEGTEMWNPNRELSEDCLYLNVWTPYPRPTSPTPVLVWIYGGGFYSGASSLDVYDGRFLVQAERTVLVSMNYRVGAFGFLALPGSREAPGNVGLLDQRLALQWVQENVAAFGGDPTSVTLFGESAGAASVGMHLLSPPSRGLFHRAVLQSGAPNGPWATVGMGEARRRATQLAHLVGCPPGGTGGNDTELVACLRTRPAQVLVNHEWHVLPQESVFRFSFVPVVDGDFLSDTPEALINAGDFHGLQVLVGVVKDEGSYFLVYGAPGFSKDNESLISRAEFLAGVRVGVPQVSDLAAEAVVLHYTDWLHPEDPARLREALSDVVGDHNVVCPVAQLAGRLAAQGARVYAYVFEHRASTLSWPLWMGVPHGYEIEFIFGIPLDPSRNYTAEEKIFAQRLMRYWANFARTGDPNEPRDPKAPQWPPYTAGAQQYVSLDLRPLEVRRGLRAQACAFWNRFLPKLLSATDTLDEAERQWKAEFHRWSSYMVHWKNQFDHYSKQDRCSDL

Question: Which results are given for `COc1c(-c2ccc(O)c(O)c2)cc(O)c2c1oc1cc(O)c(O)cc12` [6'-DESMETHYLCANDIDUSIN B]?
Answer: EC50 (Human alphaherpesvirus 1 [1]): 4.1 µM; CC50 at 72 h [2]: > 100 µM; selectivity ratio (HSV-1): > 24.4; EC50 (Human alphaherpesvirus 2 [3]): 2.1 µM; selectivity ratio (HSV-2): > 48.5

Question: Which results are given for `COC(=O)c1cc(O)cc(OC)c1C(=O)c1c(O)cc(C)cc1O` [SULOCHRIN]?
Answer: EC50 (Human alphaherpesvirus 1 [1]): > 20 µM; EC50 (Human alphaherpesvirus 2 [3]): > 20 µM

Question: Which EC50 (Human alphaherpesvirus 1 [1]) does the source give for `Nc1nc2c(ncn2COCCO)c(=O)[nH]1` [ACYCLOVIR] here?
Answer: 3.6 µM

Question: What about the CC50 at 72 h [2] of the same molecule?
Answer: > 100 µM

Question: And the selectivity ratio (HSV-1)?
Answer: > 27.9

Question: And the EC50 (Human alphaherpesvirus 2 [3])?
Answer: 4.6 µM

Question: What about the selectivity ratio (HSV-2) of the same molecule?
Answer: > 21.9

Question: For `COc1c(-c2ccc(O)cc2)cc(O)c(-c2ccc(O)c(O)c2)c1O`, which EC50 (Human alphaherpesvirus 1 [1]) is on record?
Answer: 1.8 µM

Question: What about the CC50 at 72 h [2] of the same molecule?
Answer: > 100 µM

Question: What about the selectivity ratio (HSV-1) of the same molecule?
Answer: > 54.4

Question: And the EC50 (Human alphaherpesvirus 2 [3])?
Answer: 2.3 µM

Question: And the selectivity ratio (HSV-2)?
Answer: > 43.7

Question: With `COc1c(-c2ccc(O)c(O)c2)cc2oc3cc(O)c(O)cc3c2c1O` as the molecule, how does the EC50 (Human alphaherpesvirus 1 [1]) read?
Answer: 4.3 µM

Question: And the CC50 at 72 h [2]?
Answer: > 100 µM

Question: What about the selectivity ratio (HSV-1) of the same molecule?
Answer: > 23

Question: And the EC50 (Human alphaherpesvirus 2 [3])?
Answer: 2.4 µM

Question: And the selectivity ratio (HSV-2)?
Answer: > 41.5

Question: Which EC50 (Human alphaherpesvirus 1 [1]) does the source give for `COc1c(-c2ccc(O)c(O)c2)cc(O)c(-c2ccc(O)c(O)c2)c1O` here?
Answer: 3.8 µM

Question: What about the CC50 at 72 h [2] of the same molecule?
Answer: > 100 µM

Question: And the selectivity ratio (HSV-1)?
Answer: > 26.5

Question: What about the EC50 (Human alphaherpesvirus 2 [3]) of the same molecule?
Answer: 4.2 µM

Question: What about the selectivity ratio (HSV-2) of the same molecule?
Answer: > 23.8

Question: With `O=C1C(c2ccc(O)cc2)=CC(=O)c2c1oc1cc(O)c(O)cc21` as the molecule, how does the EC50 (Human alphaherpesvirus 1 [1]) read?
Answer: > 20 µM

Question: What about the EC50 (Human alphaherpesvirus 2 [3]) of the same molecule?
Answer: > 20 µM

Question: For `O=c1cc(-c2ccc(O)c(O)c2)c(-c2ccc(O)c(O)c2)co1`, which EC50 (Human alphaherpesvirus 1 [1]) is on record?
Answer: 9.3 µM

Question: And the CC50 at 72 h [2]?
Answer: > 100 µM

Question: And the selectivity ratio (HSV-1)?
Answer: > 10.8

Question: What about the EC50 (Human alphaherpesvirus 2 [3]) of the same molecule?
Answer: 8.5 µM

Question: And the selectivity ratio (HSV-2)?
Answer: > 11.7

Question: For `COc1c(-c2ccc(O)cc2)cc2oc3cc(O)c(O)cc3c2c1O`, which Activity (Dengue virus) is on record?
Answer: inactive

Question: And the Activity (Human alphaherpesvirus 1 [4])?
Answer: Active

Question: And the Activity (Human alphaherpesvirus 1 [5])?
Answer: Active

Question: What about the EC50 (Human alphaherpesvirus 1 [1]) of the same molecule?
Answer: 2.2 µM

Question: What about the CC50 at 72 h [2] of the same molecule?
Answer: > 100 µM

Question: And the selectivity ratio (HSV-1)?
Answer: > 45.7

Question: And the EC50 (Human alphaherpesvirus 2 [3])?
Answer: 1.4 µM

Question: And the selectivity ratio (HSV-2)?
Answer: > 73.5

Question: And the Activity (Human alphaherpesvirus 1 [6])?
Answer: Dose-Dependent Effect

Question: And the Activity (Human alphaherpesvirus 2 [7])?
Answer: Dose-Dependent Effect

Question: What about the Activity (Human alphaherpesvirus 1 [8]) of the same molecule?
Answer: Active

Question: What about the Activity (Human alphaherpesvirus 2 [9]) of the same molecule?
Answer: Active

Question: What about the Activity (Human alphaherpesvirus 1 [10]) of the same molecule?
Answer: Dose-Dependent Effect

Question: And the Activity (Human alphaherpesvirus 1 [11])?
Answer: Dose-Dependent Effect

Question: What about the Activity (Human alphaherpesvirus 2 [12]) of the same molecule?
Answer: Dose-Dependent Effect

Question: What about the Activity (Human alphaherpesvirus 2 [13]) of the same molecule?
Answer: Dose-Dependent Effect

Question: And the Activity (Human alphaherpesvirus 1 [14])?
Answer: Active

Question: And the Activity (Human alphaherpesvirus 2 [15])?
Answer: Active

Question: What about the Activity (Human alphaherpesvirus 2 [16]) of the same molecule?
Answer: Active

Question: And the Activity (Human alphaherpesvirus 2 [17])?
Answer: Active

Question: And the Activity (Zika virus)?
Answer: inactive

Question: What about the inhibition [18] of the same molecule?
Answer: inactive

Question: And the IC50 (Acetylcholinesterase)?
Answer: 16 µM

Question: And the Activity (Human alphaherpesvirus 2 [19])?
Answer: Active

Question: Which EC50 (Human alphaherpesvirus 1 [1]) does the source give for `COc1c(-c2ccc(O)cc2)cc(O)c2c1oc1cc(O)c(O)cc12` here?
Answer: 4.1 µM

Question: And the CC50 at 72 h [2]?
Answer: > 100 µM

Question: What about the selectivity ratio (HSV-1) of the same molecule?
Answer: > 24.7

Question: What about the EC50 (Human alphaherpesvirus 2 [3]) of the same molecule?
Answer: 6.5 µM

Question: And the selectivity ratio (HSV-2)?
Answer: > 15.4
